Results: ChEMBL document CHEMBL5634145, “Discovery of novel amidobenzimidazole derivatives as orally available small molecule modulators of stimulator of interferon genes for cancer immunotherapy” (Eur J Med Chem, 2023)
One block for each compound: values may come before it.

Columns and labels:
[1] = Cytotoxicity against wild type human THP1-Dual cells assessed as cell viability incubated for 24 hrs by CellTiter 96 aqueous one solution assay relative to control; type: toxicity, cell-based; set-up: concentration or dose not given beside the values; conditions: read-out: Activity
[2] = Cytotoxicity against human THP1-Dual KO-STING cells assessed as cell viability incubated for 24 hrs by CellTiter 96 aqueous one solution assay relative to control; type: toxicity, cell-based; set-up: concentration or dose not given beside the values; conditions: read-out: Activity
[3] = test system: THP1-Dual; assay: Cytotoxicity against human THP1-Dual cells assessed as reduction in cell viability at 0 to 50 uM incubated for 24 hrs by CellTiter 96 aqueous one solution assay; type: toxicity, cell-based; conditions: dose 0-50 µM
[4] = test system: RAW264.7; assay: Cytotoxicity against mouse RAW264.7 cells assessed as reduction in cell viability at 0 to 80 uM incubated for 24 hrs by CellTiter 96 aqueous one solution assay; type: toxicity, cell-based; conditions: raw264.7, 24 h, dose 0-80 µM
[5] = target: T1, Cytochrome P450 1A2 (Homo sapiens, UniProt P05177); assay: Inhibition of CYP1A2 in human liver microsomes using phenacetin as substrate preincubated for 5 min followed by substrate and NADPH addition and measured after 20 mins by LC-MS/MS analysis; type: ADME, Microsome
T1 sequence (P05177 whole entry): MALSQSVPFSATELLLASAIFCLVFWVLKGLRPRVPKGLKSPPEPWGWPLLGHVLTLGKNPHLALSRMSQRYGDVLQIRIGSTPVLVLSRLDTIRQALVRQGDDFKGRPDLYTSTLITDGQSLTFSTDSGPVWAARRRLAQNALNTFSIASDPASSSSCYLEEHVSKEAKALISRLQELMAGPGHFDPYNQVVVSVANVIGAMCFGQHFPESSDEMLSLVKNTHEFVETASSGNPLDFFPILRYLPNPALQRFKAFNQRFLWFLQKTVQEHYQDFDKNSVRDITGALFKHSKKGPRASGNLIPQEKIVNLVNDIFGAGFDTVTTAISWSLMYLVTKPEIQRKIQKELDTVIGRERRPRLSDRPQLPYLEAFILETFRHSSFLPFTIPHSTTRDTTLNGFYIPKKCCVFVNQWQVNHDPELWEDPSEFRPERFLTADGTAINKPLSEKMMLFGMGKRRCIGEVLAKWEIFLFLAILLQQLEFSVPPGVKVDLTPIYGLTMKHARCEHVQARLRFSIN

[6] = target: Cytochrome P450 2C9 (Homo sapiens, UniProt P11712); assay: Inhibition of CYP2C9 in human liver microsomes using tolbutamide as substrate preincubated for 5 min followed by substrate and NADPH addition and measured after 20 mins by LC-MS/MS analysis; type: ADME, Microsome
[7] = target: Cytochrome P450 2C19 (Homo sapiens, UniProt P33261); assay: Inhibition of CYP2C19 in human liver microsomes using S-Mephenytoin as substrate preincubated for 5 min followed by substrate and NADPH addition and measured after 20 mins by LC-MS/MS analysis; type: ADME, Microsome
[8] = target: Cytochrome P450 2D6 (Homo sapiens, UniProt P10635); assay: Inhibition of CYP2D6 in human liver microsomes using dextromethorphan as substrate preincubated for 5 min followed by substrate and NADPH addition and measured after 20 mins by LC-MS/MS analysis; type: ADME, Microsome
[9] = target: Cytochrome P450 3A4 (Homo sapiens, UniProt P08684); assay: Inhibition of CYP3A4 in human liver microsomes using […] as substrate preincubated for 5 min followed by substrate and NADPH addition and measured after 20 mins by LC-MS/MS analysis; type: ADME, Microsome
[10] = target: Voltage-gated inwardly rectifying potassium channel KCNH2 (Homo sapiens, UniProt Q12809); assay: Inhibition of hERG by non-electrophysiological analysis; type: toxicity
[11] = Metabolic stability at phase I in mouse liver microsomes assessed as remaining activity at 1 uM incubated for 30 mins in presence of NADPH by LC-MS/MS analysis; type: ADME, Microsome; conditions: read-out: Stability
[12] = Metabolic stability at phase I in human liver microsomes assessed as remaining activity at 1 uM incubated for 30 mins in presence of NADPH by LC-MS/MS analysis; type: ADME, Microsome; conditions: read-out: Stability
[13] = Stability in mouse plasma assessed as remaining activity at 5 uM incubated for 4 hrs by LC-MS/MS analysis; type: ADME, cell-free; conditions: read-out: Stability
[14] = Stability in human plasma assessed as remaining activity at 5 uM incubated for 4 hrs by LC-MS/MS analysis; type: ADME, cell-free; conditions: read-out: Stability
[15] = Plasma protein binding in mouse; type: ADME, cell-free; conditions: read-out: PPB (converted)
[16] = Plasma protein binding in human; type: ADME, cell-free; conditions: read-out: PPB (converted)
[17] = Half life in ICR mouse at 5 mg/kg, iv by LC-MS/MS analysis; type: ADME, organism-based; conditions: in vivo
[18] = Half life in ICR mouse at 20 mg/kg, po administered via oral gavage by LC-MS/MS analysis; type: ADME, organism-based; conditions: in vivo
[19] = Tmax in ICR mouse at 20 mg/kg, po administered via oral gavage by LC-MS/MS analysis; type: ADME, organism-based; conditions: in vivo
[20] = Cmax in ICR mouse at 20 mg/kg, po administered via oral gavage by LC-MS/MS analysis; type: ADME, organism-based; conditions: in vivo
[21] = Volume of distribution at steady state in ICR mouse at 5 mg/kg, iv by LC-MS/MS analysis; type: ADME, organism-based; conditions: in vivo, read-out: Vdss
[22] = Clearance in ICR mouse at 5 mg/kg, iv by LC-MS/MS analysis; type: ADME, organism-based; conditions: in vivo
[23] = AUClast in ICR mouse at 5 mg/kg, iv by LC-MS/MS analysis; type: ADME, organism-based; conditions: in vivo
[24] = AUClast in ICR mouse at 20 mg/kg, po administered via oral gavage by LC-MS/MS analysis; type: ADME, organism-based; conditions: in vivo
[25] = AUC (0 to infinity) in ICR mouse at 5 mg/kg, iv by LC-MS/MS analysis; type: ADME, organism-based; conditions: in vivo
[26] = AUC (0 to infinity) in ICR mouse at 20 mg/kg, po administered via oral gavage by LC-MS/MS analysis; type: ADME, organism-based; conditions: in vivo
[27] = Oral bioavailability in ICR mouse at 20 mg/kg administered via oral gavage by LC-MS/MS analysis; type: ADME, organism-based; conditions: in vivo
[28] = Toxicity in BALB/c mouse implanted with mouse 4T1 cells assessed as body weight loss at 16 mg/kg, po administrated every other day for 6 times and measured after 12 days; type: organism-based; conditions: in vivo, 288 h, time 12 day
[29] = target: Stimulator of interferon genes protein (Homo sapiens, UniProt Q86WV6); assay: Agonist activity at STING in wild type human THP1-Dual cells assessed as increase in IRF-mediated immune response incubated for 24 hrs by QUANTI-Luc assay; type: cell-based
Chain of Stimulator of interferon genes protein (Q86WV6 whole entry): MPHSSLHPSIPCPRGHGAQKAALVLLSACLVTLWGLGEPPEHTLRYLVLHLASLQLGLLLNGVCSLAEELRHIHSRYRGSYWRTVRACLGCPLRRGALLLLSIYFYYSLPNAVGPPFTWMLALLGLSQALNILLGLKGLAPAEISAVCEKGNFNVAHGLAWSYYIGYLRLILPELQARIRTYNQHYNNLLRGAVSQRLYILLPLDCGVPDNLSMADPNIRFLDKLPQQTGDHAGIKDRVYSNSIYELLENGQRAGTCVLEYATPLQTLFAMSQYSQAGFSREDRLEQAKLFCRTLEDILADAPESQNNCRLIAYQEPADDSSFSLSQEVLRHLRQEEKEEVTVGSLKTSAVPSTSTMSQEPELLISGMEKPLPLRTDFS

Chain of Voltage-gated inwardly rectifying potassium channel KCNH2 (Q12809 whole entry): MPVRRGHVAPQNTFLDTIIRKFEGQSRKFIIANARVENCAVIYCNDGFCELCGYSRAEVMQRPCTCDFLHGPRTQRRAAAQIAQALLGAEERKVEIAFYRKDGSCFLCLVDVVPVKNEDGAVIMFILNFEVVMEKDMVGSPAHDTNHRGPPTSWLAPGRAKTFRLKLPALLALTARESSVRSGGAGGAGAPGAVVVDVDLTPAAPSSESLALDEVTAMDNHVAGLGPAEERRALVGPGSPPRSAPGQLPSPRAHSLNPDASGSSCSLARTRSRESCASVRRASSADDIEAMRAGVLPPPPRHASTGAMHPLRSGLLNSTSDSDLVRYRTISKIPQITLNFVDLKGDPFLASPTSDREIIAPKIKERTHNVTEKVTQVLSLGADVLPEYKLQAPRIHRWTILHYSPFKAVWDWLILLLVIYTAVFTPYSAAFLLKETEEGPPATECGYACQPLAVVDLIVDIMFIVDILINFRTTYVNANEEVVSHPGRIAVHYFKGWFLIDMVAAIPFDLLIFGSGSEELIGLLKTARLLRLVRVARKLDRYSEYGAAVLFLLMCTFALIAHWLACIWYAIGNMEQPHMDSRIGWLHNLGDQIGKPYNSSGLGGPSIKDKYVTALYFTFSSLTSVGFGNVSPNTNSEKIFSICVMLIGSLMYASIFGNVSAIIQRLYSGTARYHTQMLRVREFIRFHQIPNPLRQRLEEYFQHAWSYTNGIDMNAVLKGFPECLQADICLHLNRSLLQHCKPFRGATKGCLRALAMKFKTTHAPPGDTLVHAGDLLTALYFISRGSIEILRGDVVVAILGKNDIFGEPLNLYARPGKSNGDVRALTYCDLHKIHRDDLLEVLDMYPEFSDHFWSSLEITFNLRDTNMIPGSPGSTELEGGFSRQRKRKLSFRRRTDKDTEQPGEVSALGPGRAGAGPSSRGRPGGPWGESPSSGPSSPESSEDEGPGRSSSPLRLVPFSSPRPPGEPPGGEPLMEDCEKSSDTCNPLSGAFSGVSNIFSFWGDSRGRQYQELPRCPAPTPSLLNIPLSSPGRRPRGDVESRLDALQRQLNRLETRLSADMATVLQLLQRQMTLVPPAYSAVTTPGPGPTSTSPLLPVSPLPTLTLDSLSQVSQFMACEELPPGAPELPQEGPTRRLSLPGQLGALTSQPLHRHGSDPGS
Chain of Cytochrome P450 2C19 (P33261 whole entry): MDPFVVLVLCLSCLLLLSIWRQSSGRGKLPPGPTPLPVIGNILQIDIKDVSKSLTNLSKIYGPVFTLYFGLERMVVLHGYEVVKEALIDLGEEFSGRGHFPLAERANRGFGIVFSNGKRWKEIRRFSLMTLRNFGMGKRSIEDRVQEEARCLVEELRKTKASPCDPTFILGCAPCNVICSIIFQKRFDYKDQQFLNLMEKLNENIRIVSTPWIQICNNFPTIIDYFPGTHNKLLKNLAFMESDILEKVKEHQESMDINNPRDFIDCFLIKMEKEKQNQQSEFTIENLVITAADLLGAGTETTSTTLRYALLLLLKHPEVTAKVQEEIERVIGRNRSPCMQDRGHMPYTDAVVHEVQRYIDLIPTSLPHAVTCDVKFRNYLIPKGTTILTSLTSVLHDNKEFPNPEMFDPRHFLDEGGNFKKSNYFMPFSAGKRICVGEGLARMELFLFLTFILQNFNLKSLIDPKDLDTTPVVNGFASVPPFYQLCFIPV
Chain of Cytochrome P450 2C9 (P11712 whole entry): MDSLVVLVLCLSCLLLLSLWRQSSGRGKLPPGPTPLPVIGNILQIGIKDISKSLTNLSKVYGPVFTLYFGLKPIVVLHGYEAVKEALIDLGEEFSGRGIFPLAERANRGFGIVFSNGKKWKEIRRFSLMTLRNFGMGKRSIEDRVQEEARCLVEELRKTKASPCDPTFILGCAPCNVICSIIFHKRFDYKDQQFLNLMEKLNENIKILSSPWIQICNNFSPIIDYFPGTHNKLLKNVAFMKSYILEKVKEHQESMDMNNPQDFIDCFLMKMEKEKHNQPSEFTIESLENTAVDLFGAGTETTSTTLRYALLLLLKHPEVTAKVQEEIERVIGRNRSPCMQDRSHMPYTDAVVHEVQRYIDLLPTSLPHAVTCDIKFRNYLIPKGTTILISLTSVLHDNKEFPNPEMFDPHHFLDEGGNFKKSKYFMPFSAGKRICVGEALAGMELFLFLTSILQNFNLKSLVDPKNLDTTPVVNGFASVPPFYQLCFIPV
Chain of Cytochrome P450 2D6 (P10635 whole entry): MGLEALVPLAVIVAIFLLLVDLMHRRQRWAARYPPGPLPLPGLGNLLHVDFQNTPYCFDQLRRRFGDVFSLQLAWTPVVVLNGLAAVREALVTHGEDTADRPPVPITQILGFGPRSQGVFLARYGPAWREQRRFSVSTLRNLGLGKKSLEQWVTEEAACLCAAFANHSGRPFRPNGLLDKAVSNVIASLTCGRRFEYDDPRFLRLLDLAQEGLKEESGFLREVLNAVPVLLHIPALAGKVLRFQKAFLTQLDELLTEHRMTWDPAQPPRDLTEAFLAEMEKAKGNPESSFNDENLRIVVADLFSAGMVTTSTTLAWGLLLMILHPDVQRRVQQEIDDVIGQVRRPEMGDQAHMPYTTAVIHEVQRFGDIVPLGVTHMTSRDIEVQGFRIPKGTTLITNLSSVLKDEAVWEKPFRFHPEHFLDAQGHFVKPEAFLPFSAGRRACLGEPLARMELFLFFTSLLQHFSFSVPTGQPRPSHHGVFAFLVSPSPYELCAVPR
Chain of Cytochrome P450 3A4 (P08684 whole entry): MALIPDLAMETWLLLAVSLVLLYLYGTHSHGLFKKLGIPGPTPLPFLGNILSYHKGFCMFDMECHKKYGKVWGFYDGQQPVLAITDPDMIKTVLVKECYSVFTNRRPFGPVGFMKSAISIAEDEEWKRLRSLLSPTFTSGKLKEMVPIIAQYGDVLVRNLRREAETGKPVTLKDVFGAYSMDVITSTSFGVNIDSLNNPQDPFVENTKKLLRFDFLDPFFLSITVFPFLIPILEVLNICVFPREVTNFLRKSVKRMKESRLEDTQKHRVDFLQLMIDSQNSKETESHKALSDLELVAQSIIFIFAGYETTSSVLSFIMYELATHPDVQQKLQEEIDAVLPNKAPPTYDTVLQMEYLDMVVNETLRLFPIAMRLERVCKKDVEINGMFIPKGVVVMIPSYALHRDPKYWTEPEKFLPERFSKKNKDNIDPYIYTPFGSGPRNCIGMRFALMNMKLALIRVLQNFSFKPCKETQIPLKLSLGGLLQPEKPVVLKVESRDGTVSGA

SMILES: Cc1ccc(C(=O)Nc2nc3cc(C(N)=O)ccc3n2CCCCNC(=O)OC(C)(C)C)c(C)n1
viability at 24 h [1]: 112%
viability at 24 h [2]: 93.2%

SMILES: Cc1ncccc1C(=O)Nc1nc2cc(C(N)=O)ccc2n1CCCN
viability at 24 h [1]: 105%
viability at 24 h [2]: 100%

SMILES: CCn1nc(C)cc1C(=O)NCCCCn1c(NC(=O)c2cccnc2C)nc2cc(C(N)=O)ccc21
viability at 24 h [1]: 98.5%
viability at 24 h [2]: 105%

SMILES: CC(C)(C)OC(=O)NCCCCn1c(NC(=O)c2ccc(C(F)(F)F)nc2)nc2cc(C(N)=O)ccc21
viability at 24 h [1]: 106%
viability at 24 h [2]: 108%

IC50 [5]: > 100 µM
IC50 [6]: 28.3 µM
IC50 [7]: 8.8 µM
IC50 [8]: 16.5 µM
IC50 [9]: 10.5 µM
remaining at 0.5 h, 1 µM [11]: 18.1%
remaining at 0.5 h, 1 µM [12]: 27.9%
remaining at 4 h, 5 µM [13]: 99.5%
remaining at 4 h, 5 µM [14]: > 99.9%
fraction unbound [15]: 0.0624
fraction unbound [16]: 0.0211
half-life [17]: 11.2 h
half-life [18]: 13.3 h
Tmax [19]: 0.42 h
Cmax [20]: 110 ng/mL
Vd [21]: 11.7 L/kg
clearance [22]: 95.5 mL/min/kg
AUC(0-t) [23]: 880 ng·h/mL
AUC(0-t) [24]: 180 ng·h/mL
AUC(0-inf) [25]: 900 ng·h/mL
AUC(0-inf) [26]: 210 ng·h/mL
bioavailability [27]: 5.23%
SMILES: Cc1ncccc1C(=O)Nc1nc2cc(C(N)=O)ccc2n1CCCCNC(=O)OC(C)(C)C
viability at 24 h [1]: 99.4%
viability at 24 h [2]: 106%
Activity [3]: Non-Toxic
Activity [4]: Non-Toxic
IC50 [10]: > 100 µM
Activity [28]: Non-Toxic

EC50 [29]: 18 µM
SMILES: Cc1ncccc1C(=O)Nc1nc2cc(C(N)=O)ccc2n1CCCCn1c(NC(=O)c2cccnc2C)nc2cc(C(N)=O)ccc21
viability at 24 h [1]: 91%
viability at 24 h [2]: 118%

SMILES: Cc1cncc(C(=O)Nc2nc3cc(C(N)=O)ccc3n2CCCCNC(=O)OC(C)(C)C)c1
viability at 24 h [1]: 90.7%
viability at 24 h [2]: 97.4%

SMILES: CC(=O)NCCCCn1c(NC(=O)c2cccnc2C)nc2cc(C(N)=O)ccc21
viability at 24 h [1]: 99.7%
viability at 24 h [2]: 97.4%

EC50 [29]: 42.1 µM
SMILES: CC(C)(C)OC(=O)NCCCCn1c(NC(=O)c2cccnc2)nc2cc(C(N)=O)ccc21
viability at 24 h [1]: 97.4%
viability at 24 h [2]: 93.3%

SMILES: CC(C)(C)OC(=O)NCCCCn1c(NC(=O)c2ccccc2)nc2cc(C(N)=O)ccc21
viability at 24 h [1]: 82.1%
viability at 24 h [2]: 101%

SMILES: Cc1ncccc1C(=O)Nc1nc2cc(C(N)=O)ccc2n1CCCCN
viability at 24 h [1]: 105%
viability at 24 h [2]: 98.5%

SMILES: Cc1ncccc1C(=O)Nc1nc2cc(C(N)=O)ccc2n1CCCNC(=O)OC(C)(C)C
viability at 24 h [1]: 102%
viability at 24 h [2]: 93.6%

SMILES: COc1cc(C(N)=O)cc2nc(NC(=O)c3cccnc3C)n(C/C=C/CNC(=O)OC(C)(C)C)c12
viability at 24 h [1]: 106%
viability at 24 h [2]: 97.5%

SMILES: CC(C)(C)OC(=O)NCCCCn1c(NC(=O)c2cccnc2C(C)(C)C)nc2cc(C(N)=O)ccc21
viability at 24 h [1]: 91.6%
viability at 24 h [2]: 106%

SMILES: Cc1ccc(C(=O)Nc2nc3cc(C(N)=O)ccc3n2CCCCNC(=O)OC(C)(C)C)cn1
viability at 24 h [1]: 89.3%
viability at 24 h [2]: 95.3%

SMILES: Cc1ncccc1C(=O)Nc1nc2cc(C(N)=O)ccc2n1C
viability at 24 h [1]: 82.8%
viability at 24 h [2]: 105%
